Values joined by “and” are separate entries in the source; they are usually repeats but may differ in a detail not shown here. Equal entries are not always repeated.
Columns and labels:
Assay type in all cases: cell-based, human
HOP-92 = test: NCI one-dose screen; details: NSCLC HOP-92, 10 µM single dose
Description: (§1) All of the synthesised structures were selected and submitted to NCI based on computer modelling techniques and the degree of diversity of structures for the evaluation of their antiproliferative activity. The 20 synthesised compounds were selected with their respective NCI codes [NCS D-820157- NCS D-820176] for the inhibition percent assay at an initial single dose of 10 μM on the full NCI 60 cell panel, where the mean graph of the percent growth for all compounds on the full NCI cell panel is evaluated, compared to the untreated control cells (Supplementary Material). In vitro cell line inhibition % of all synthesised compounds is represented in (Table 1 of Supplementary Material).
(§2) All of the synthesised compounds (20) were submitted to NCI and selected for in vitro anticancer assay against a panel of 60 cancer cell lines. The methodology of assay and calculations is as reported.

EKVX = test: NCI one-dose screen; details: NSCLC EKVX, 10 µM single dose
Description: as §1, §2

HL-60(TB) = test: NCI one-dose screen; details: Leukemia HL-60(TB), 10 µM single dose
Description: as §1, §2

MDA-MB-435 = test: NCI one-dose screen; details: Melanoma MDA-MB-435, 10 µM single dose
Description: as §1, §2

PC-3 = test: NCI one-dose screen; details: Prostate PC-3, 10 µM single dose
Description: as §1, §2

SK-OV-3 = test: NCI one-dose screen; details: Ovarian SK-OV-3, 10 µM single dose
Description: as §1, §2

KM12 = test: NCI one-dose screen; details: Colon KM12, 10 µM single dose
Description: as §1, §2

A549/ATCC = test: NCI one-dose screen; details: NSCLC A549/ATCC, 10 µM single dose
Description: as §1, §2

SF-539 = test: NCI one-dose screen; details: CNS SF-539, 10 µM single dose
Description: as §1, §2

SF-295 = test: NCI one-dose screen; details: CNS SF-295, 10 µM single dose
Description: as §1, §2

UO-31 = test: NCI one-dose screen; details: Renal UO-31, 10 µM single dose
Description: as §1, §2

OVCAR-5 = test: NCI one-dose screen; details: Ovarian OVCAR-5, 10 µM single dose
Description: as §1, §2

RXF 393 = test: NCI one-dose screen; details: Renal RXF 393, 10 µM single dose
Description: as §1, §2

HOP-62 = test: NCI one-dose screen; details: NSCLC HOP-62, 10 µM single dose
Description: as §1, §2

SK-MEL-5 = test: NCI one-dose screen; details: Melanoma SK-MEL-5, 10 µM single dose
Description: as §1, §2

HCC-2998 = test: NCI one-dose screen; details: Colon HCC-2998, 10 µM single dose
Description: as §1, §2

DU-145 = test: NCI one-dose screen; details: Prostate DU-145, 10 µM single dose
Description: as §1, §2

OVCAR-8 = test: NCI one-dose screen; details: Ovarian OVCAR-8, 10 µM single dose
Description: as §1, §2

HS 578T = test: NCI one-dose screen; details: Breast HS 578T, 10 µM single dose
Description: as §1, §2

RPMI-8226 = test: NCI one-dose screen; details: Leukemia RPMI-8226, 10 µM single dose
Description: as §1, §2

CAKI-1 = test: NCI one-dose screen; details: Renal CAKI-1, 10 µM single dose
Description: as §1, §2

UACC-257 = test: NCI one-dose screen; details: Melanoma UACC-257, 10 µM single dose
Description: as §1, §2

MCF7 = test: NCI one-dose screen; details: Breast MCF7, 10 µM single dose
Description: as §1, §2

TK-10 = test: NCI one-dose screen; details: Renal TK-10, 10 µM single dose
Description: as §1, §2

OVCAR-4 = test: NCI one-dose screen; details: Ovarian OVCAR-4, 10 µM single dose
Description: as §1, §2

MDA-MB-231/ATCC = test: NCI one-dose screen; details: Breast MDA-MB-231/ATCC, 10 µM single dose
Description: as §1, §2

SK-MEL-28 = test: NCI one-dose screen; details: Melanoma SK-MEL-28, 10 µM single dose
Description: as §1, §2

NCI-H322M = test: NCI one-dose screen; details: NSCLC NCI-H322M, 10 µM single dose
Description: as §1, §2

SN12C = test: NCI one-dose screen; details: Renal SN12C, 10 µM single dose
Description: as §1, §2

HCT-15 = test: NCI one-dose screen; details: Colon HCT-15, 10 µM single dose
Description: as §1, §2

MDA-MB-468 = test: NCI one-dose screen; details: Breast MDA-MB-468, 10 µM single dose
Description: as §1, §2

U251 = test: NCI one-dose screen; details: CNS U251, 10 µM single dose
Description: as §1, §2

NCI-H460 = test: NCI one-dose screen; details: NSCLC NCI-H460, 10 µM single dose
Description: as §1, §2

OVCAR-3 = test: NCI one-dose screen; details: Ovarian OVCAR-3, 10 µM single dose
Description: as §1, §2

BT-549 = test: NCI one-dose screen; details: Breast BT-549, 10 µM single dose
Description: as §1, §2

full NCI 60 cell panel = test: NCI one-dose screen, whole panel statistics; details: 1.00E-5 Molar; for Mean Growth Percent: mean over panel
Description: as §1, §2

Structure (SMILES) | Growth Percent (HOP-92) | Growth Percent (EKVX) | Growth Percent (HL-60(TB)) | Growth Percent (MDA-MB-435) | Growth Percent (PC-3) | Growth Percent (SK-OV-3) | Growth Percent (KM12) | Growth Percent (A549/ATCC) | Growth Percent (SF-539) | Growth Percent (SF-295) | Growth Percent (UO-31) | Growth Percent (OVCAR-5) | Growth Percent (RXF 393) | Growth Percent (HOP-62) | Growth Percent (SK-MEL-5) | Growth Percent (HCC-2998) | Growth Percent (DU-145) | Growth Percent (OVCAR-8) | Growth Percent (HS 578T) | Growth Percent (RPMI-8226) | further results
COc1cccc(NC(=O)Nc2ccc(Nc3ncnc4sc(C(=O)NCCC(=O)NO)c(C)c34)cc2)c1 [Compound 11b, 1–(4-(6-((3-(hydroxyamino)-3-oxopropyl)carbamoyl)-5-methylthieno[2,3-d]pyrimidin-4-ylamino)phenyl)-3–(3-methoxyphenyl)urea] | 119.1% and 119.18% | 90.7% and 90.77% | 103.9% and 103.99% | 100.8% and 100.85% | 102.0% and 102.03% | 123.7% and 123.78% | 99.5% and 99.57% | 96.2% and 96.21% | 98.0% and 98.07% | 100.0% and 100.08% | 83.4% and 83.44% | 101.9% and 101.91% | 104.1% | 103.2% and 103.23% | 95.8% and 95.84% | 103.8% and 103.81% | 102.0% and 102.08% | 99.2% and 99.26% | 100.7% | 110.5% | Growth Percent (CAKI-1): 95.6% and 95.62%; Growth Percent (UACC-257): 99.1% and 99.15%; Growth Percent (MCF7): 90.5% and 90.58%; Growth Percent (TK-10): 109.9% and 109.96%; Growth Percent (OVCAR-4): 91.0% and 91.01%; Growth Percent (MDA-MB-231/ATCC): 100.5% and 100.55%; Growth Percent (SK-MEL-28): 105.3%; Growth Percent (NCI-H322M): 100.7% and 100.74%; Growth Percent (SN12C): 105.1% and 105.11%; Growth Percent (HCT-15): 99.0% and 99.06%; Growth Percent (MDA-MB-468): 83.0% and 83.04%; Growth Percent (U251): 97.1% and 97.12%; Growth Percent (NCI-H460): 101.9% and 101.91%; Growth Percent (OVCAR-3): 108.9%; Growth Percent (BT-549): 96.1% and 96.14%; Delta (one dose mean graph) (full NCI 60 cell panel): 17.95%; Range (one dose mean graph) (full NCI 60 cell panel): 40.74%; Mean Growth Percent (full NCI 60 cell panel): 100.99%
Cc1c(C(=O)NCCC(=O)NO)sc2ncnc(Nc3ccc(NC(=O)Nc4cccc(C(F)(F)F)c4)cc3)c12 [Compound 11c, 1–(4-(6-((3-(hydroxyamino)-3-oxopropyl)carbamoyl)-5-methylthieno[2,3-d]pyrimidin-4-ylamino)phenyl)-3–(3-(trifluoromethyl)phenyl)urea] | 115.4% | 90.7% and 90.76% | 105.0% and 105.04% | 103.1% and 103.18% | 100.2% and 100.24% | 115.3% and 115.32% | 100.1% and 100.15% | 103.7% and 103.74% | 78.9% and 78.96% | 91.8% and 91.82% | 87.0% and 87.09% | 104.4% and 104.48% | 103.8% and 103.88% | 101.7% | 97.1% and 97.12% | 111.5% and 111.56% | 105.3% and 105.34% | 102.2% and 102.23% | 93.51% | 102.2% and 102.26% | Growth Percent (CAKI-1): 99.3% and 99.31%; Growth Percent (UACC-257): 108.3% and 108.33%; Growth Percent (MCF7): 89.2% and 89.23%; Growth Percent (TK-10): 140.4% and 140.42%; Growth Percent (OVCAR-4): 105.0% and 105.02%; Growth Percent (MDA-MB-231/ATCC): 105.2% and 105.25%; Growth Percent (SK-MEL-28): 109.7% and 109.72%; Growth Percent (NCI-H322M): 103.7% and 103.74%; Growth Percent (SN12C): 100.0% and 100.06%; Growth Percent (HCT-15): 101.2% and 101.22%; Growth Percent (MDA-MB-468): 97.1% and 97.16%; Growth Percent (U251): 80.2% and 80.22%; Growth Percent (NCI-H460): 99.4% and 99.41%; Growth Percent (OVCAR-3): 111.6%; Growth Percent (BT-549): 137.1% and 137.18%; Delta (one dose mean graph) (full NCI 60 cell panel): 23.75%; Range (one dose mean graph) (full NCI 60 cell panel): 61.62%; Mean Growth Percent (full NCI 60 cell panel): 102.55%
Cc1c(C(=O)NCCCC(=O)NO)sc2ncnc(Nc3ccc(NC(=O)Nc4ccccc4)cc3)c12 [Compound 12a, 1–(4-(6-((4-(hydroxyamino)-4-oxobutyl)carbamoyl)-5-methylthieno[2,3-d]pyrimidin-4-ylamino)phenyl)-3-phenylurea] | 121.7% and 121.76% | 93.22% | 101.4% and 101.44% | 101.8% and 101.82% | 98.9% and 98.99% | 121.6% and 121.69% | 99.6% and 99.61% | 99.6% and 99.69% | 96.5% and 96.54% | 102.0% and 102.06% | 75.3% and 75.33% | 105.1% and 105.14% | 100.1% and 100.13% | 100.0% and 100.08% | 97.8% and 97.81% | 102.1% and 102.15% | 108.5% and 108.51% | 104.6% and 104.68% | 106.3% and 106.34% | 110.5% and 110.53% | Growth Percent (CAKI-1): 92.8% and 92.88%; Growth Percent (UACC-257): 104.2% and 104.23%; Growth Percent (MCF7): 92.4% and 92.41%; Growth Percent (TK-10): 111.3% and 111.37%; Growth Percent (OVCAR-4): 100.6%; Growth Percent (MDA-MB-231/ATCC): 92.1% and 92.16%; Growth Percent (SK-MEL-28): 109.4% and 109.43%; Growth Percent (NCI-H322M): 99.7% and 99.76%; Growth Percent (SN12C): 99.0% and 99.09%; Growth Percent (HCT-15): 100.2%; Growth Percent (MDA-MB-468): 100.0% and 100.06%; Growth Percent (U251): 92.3% and 92.32%; Growth Percent (NCI-H460): 102.6% and 102.61%; Growth Percent (OVCAR-3): 107.1% and 107.19%; Growth Percent (BT-549): 105.0% and 105.06%; Delta (one dose mean graph) (full NCI 60 cell panel): 25.38%; Range (one dose mean graph) (full NCI 60 cell panel): 46.43%; Mean Growth Percent (full NCI 60 cell panel): 100.71%
